From US20250152609A1, “SALICYLIC ACID COMPOSITIONS AND USES THEREOF” (priority 2022, published 2025)
In brackets after ≈: the same amount, converted by molar mass. Read-outs that look alike come from different tables or passages of the source.

Experiments:
[1] = system: E. coli CFT073 adhesion to human urinary bladder cells (T24); assay: In vitro adhesion test (ADH): adhesion of E. coli to human bladder cells, cfu plate count; assay type: cell-based; details: for reduction of adhesion of E. coli CFT073 on urinary bladder cells: 1 h, adhesion <50% of control = significant, FIG. 1C
Experimental: In Vitro Adhesion Test (ADH)—Host-Pathogen-Interaction Assessed by In Vitro Adhesion to Human Cells Adhesion of E. coli to bladder epithelium was established in cell culture. Upon exposure to E. coli an epithelial cell detachment was observed, in a manner similar to in vivo exfoliation. The test was miniaturized by growing the epithelium cell cultures in 96-well plates instead of the classical 24-well plates.
The test samples were added prior to the start of the adhesion process. Bladder cells grown to confluence in 96-well plates were exposed to E. coli (50 μL of E. coli at 1.4*10^7 cfu/mL in each well) for 1 h. After 1 h, non-adhered E. coli were rinsed off and the adhered E. coli were detached and enumerated by plate counting colony-forming-units (cfu). Enumeration was automatized using a spiral plate count apparatus which further improved the test-variability.
The E. coli adhesion test was run in absence (given as 100% adhesion) and presence of different concentrations of the agents. […] Human cytotoxicity measurements of the mitochondrial activity (MTT) excluded side-effects of the agents.
Results are presented in FIG. 1C where relative adhesion (ADH) is expressed in percent (no inhibition control=100%; buffer was used instead of the treatments). All adhesion values<50% are defined as a significant inhibition.
Anti-adhesive effect is measured in vitro (standard method) using centrifuged extracts (Fu1) of Filipendula ulmaria (F) and Epilobium parviflorum (E) using human epithelial bladder cells (T24 ATCC® HTB-4™ Homo sapiens urinary bladder cell lines).

E. coli = assay: In vitro antibacterial assay (MIC), E. coli growth in solution in 96-well plates, plate counting; assay type: cell-based; details: for MIC: Escherichia coli
Experimental: E. coli growth in solution was measured in 96-well plates. Absence and presence of different concentrations of the test agent during exponential growth determined the MIC (minimal inhibitory concentration) value. E. coli enumeration was by the plate-counting method (ufc) as described above.

[2] = Analysis of salicylic acid and its metabolites in urines of treated mice (HPLC-MRM-MS); assay type: in vivo; details: for share of ingested SA found in the urines in this form: Filipendula ulmaria extract with 1.3% SA, total 40 mg in 8 doses over 24 h, oral
Experimental: A: Comparison of RT from analytical standards of salicylic acid (SA) (1) and its metabolites […] (DHBA) (2) and salicyluric acid (SUA) (3) and peaks found in urine samples collected from the group treated with Filipendula ulmaria extract (Fil). Analysis was performed on a SunFire™ C18 ([…], 3.0 mm×150 mm) column (Waters). 5% MeCN (A) and MeCN (B) both containing 0.1% of formic acid were used as mobile phase. A gradient of 0 to 100% B in 20 min was applied at a flow rate of 0.8 mL/min. B: Concentration, amounts (in samples collected over a 3-hour-period) and cumulative amounts of salicylic acid (SA) (1) and its metabolites 2,3-dihydroxybenzoic acid (DHBA) (2) and salicyluric acid (SUA) (3) found in urine samples collected from groups treated with Filipendula ulmaria extract (F). Cumulative amounts are the cumulated amounts of the respective compounds in the urine over time up to the indicated timepoint. Numbers on x-axis indicate collection time. Analysis was performed by HPLC-MRM-MS using the chromatographic conditions described in A.
The urines collected from control groups as described in Example 3 were compared against urines collected from mice treated with different combinations of plant extracts. The urines were analyzed using HPLC-UV/MS on a SunFire C18 column column. 5% MeCN (A) and MeCN (B) both containing 0.1% of formic acid were used as mobile phase. A gradient of 0 to 100% B in 20 min was applied at a flow rate of 0.8 mL/min. MS scans were recorded in positive and negative ion modes (ESI+/−). Major additional peaks in the groups treated with a mixture of Filipendula ulmaria-Epilobium parviflorum were identified as salicylic acid (SA) (1), 2,3-dihydroxybenzoic acid (DHBA) (2), and salicyluric acid (SUA) (3). FIG. 3A compares the RT from analytical standards of salicylic acid (SA) (1) and its metabolites salicyluric acid (SUA) ([…]) and 2,3-dihydroxybenzoic acid (DHBA) (2), and peaks found in urine samples collected from groups treated with Filipendula extracts. The exact mass of the three molecules was confirmed using high-resolution mass spectrometry. Further, the three identified metabolites were quantified in the urine samples by MRM—with the following transitions (m z): 136.5→65.0, 136.5→92.9 (SA); 152.9→108.9, 152.9→80.9 (DHBA); 194.0→150.0, 194.0→92.9 (SUA) and pure analytical standards that were diluted in urine from negative controls for the calibration curve.
The amounts of SA, SUA et DHBA were quantified in the urine of mice after absorption of an extract of Filipendula ulmaria containing 1.3% of SA at a total dose of 40 mg divided in 8 equal doses over 24 h as described above (Example 3, in-vivo efficacy studies).

E. coli CFT073 = assay: In vivo UTI mouse model: living E. coli in bladder homogenates (bladder adhesion); set-up: species or system mice
From the text: (§1) An in vivo test of UTI (urinary tract infection) was established and implemented for the identification of active plant extracts and compounds. […] which were age matched females were adapted to the clean, non-septic laboratory conditions. The experiment started with a 2 days nutrition enriched by glucose in order to facilitate the subsequent UTI infection. Each compound, or plant extract was then applied at various concentrations by 8 consecutive intestinal ingestions by gavage-devices over the duration of 24 h. Each ingestion comprised a volume of 100 μL solution. During these 24 h the mice were hold in metabolic cages. The urine was collected every 3 h to analyze diuresis effects. For the subsequent UTI infection*, the isolate E. coli CFT073 (commercially available at DSM, originating from human UTI) was applied trans-urethral into the bladder and incubated in vivo for a 3 h duration and free movements in normal cages. Mice were euthanized and living E. coli were enumerated in bladder homogenates (homogenization of 12 bladder for living bacteria counting (cfu)), and organ morphology were assessed by histology microscopy. *UTI Infection with 50 μL of E. coli (CFT073) containing […] inoculated in the bladder (in another experiment, the in vivo infection was run similarly, but with slightly less germs 3.3×10^6 or 5×10^6 germs per inoculation).
The in-vivo anti-adhesion effect of the various substances and extracts of the invention were tested in vivo using a mouse model as described above by giving orally 100 μL of test substance every 3 hours for 24 h prior to inoculating E. coli in the bladder 3 h before measuring E. coli in the bladder. At the end of each assay, mice are euthanized, and their bladder homogenized for E. coli measurements.

[3] = Diuretic effects: urine collected over 24 h in the mouse model; assay type: in vivo; details: 68.8 μg/100 μL orally every 3 h; urine of 6 mice over 24 h
From the text: as §1, with “For the subsequent UTI infection*, the isolate E. coli CFT073 (commercially available at DSM, originating from human UTI) was applied trans-urethral into the bladder and incubated in vivo for a 3 h duration and free movements in normal cages.” left out
The urines were collected from control groups and from mice treated with different agents. […] Each value has been calculated from the total urine collected from 6 mice.

[4] = E. coli, 24 h exponential growth, pure substances and cranberry control
[5] = as given in the legend of FIG. 1F, read-out: prevention of growth of E. coli (MIC)
[6] = CHHeNCrL (so in the source); i.e. C3H/HeNCrl), mouse, in vivo

Compound	reduction of adhesion of E. coli CFT073 on urinary bladder cells ([1]; 2.5 mg/mL)	reduction of adhesion of E. coli CFT073 on urinary bladder cells ([1]; 5 mg/mL)	Observation of microbial culture (E. coli; 0.3125 mg/mL, 24 h)	Observation of microbial culture (E. coli; 0.625 mg/mL, 24 h)	Observation of microbial culture (E. coli; 1.25 mg/mL, 24 h)	Observation of microbial culture (E. coli; 2.5 mg/mL, 24 h)	Observation of microbial culture (E. coli; 5 mg/mL, 24 h)	MIC (minimal inhibitory concentration) (E. coli; [4])	MIC (E. coli; [5]) [µg/mL]	cumulated amounts present in the urine [2, 6] [µg]	share of ingested SA found in the urines in this form ([2]; mice) [%]	other results
O=C(O)c1cccc(O)c1O [2,3-Dihydroxybenzoic acid, 2,3-dihydroxybenzoic acid]	an effect	an effect	growth	growth *	no growth	no growth	no growth	MIC at 1.25 mg/mL	2500 (≈ 16.2 mM)	68		MIC (minimal inhibitory concentration) (E. coli; E. coli, 24 h exponential growth, pure substances and cranberry control, listed as 2): 5000 µg/mL (≈ 32.4 mM)
O=C(O[C@H]1[C@@H]2OC(=O)c3cc(O)c(O)c(O)c3-c3c4cc(c(O)c3O)Oc3c(cc(O)c(O)c3O)C(=O)O[C@H]3C(O)O[C@@H]5COC(=O)c6cc(O)c(O)c(O)c6-c6c(cc(c(O)c6O)Oc6c(cc(O)c(O)c6O)C(=O)O[C@H]1C(O)O[C@@H]2COC4=O)C(=O)O[C@H]5[C@@H]3OC(=O)c1cc(O)c(O)c(O)c1)c1cc(O)c(O)c(O)c1 (stereo partly shown) [Oenothein B]								MIC at 1.3 mg/mL				Observation of microbial culture (E. coli; 0.65 mg/mL): growth; Observation of microbial culture (E. coli; 1.3 mg/mL): no growth; Observation of microbial culture (E. coli; 1.9 mg/mL): no growth; Observation of microbial culture (E. coli; 2.6 mg/mL): no growth; Observation of microbial culture (E. coli; 3.25 mg/mL): no growth; MIC (E. coli; 24 h, read-out: MIC (minimal inhibitory concentration)): 1300 µg/mL (≈ 0.829 mM); MIC (E. coli; read-out: prevention of growth of E. coli (MIC)): 1300 µg/mL (≈ 0.829 mM); number of adhered bacteria E. coli lower than in the controls (E. coli CFT073; 0.065 mg/100 mL, inoculation 3.28×5×10^6 cfu): 75.12%; identification of the compound and its metabolites by LC-MS in the collected urine samples ([2]; mouse, in vivo, po): not identified
O=C(O)c1ccccc1O [Salicylic acid, salicylic acid]	adhesion reduction efficacy	adhesion reduction efficacy	growth	growth	growth	growth	no growth	MIC at 5 mg/mL	5000 (≈ 36.2 mM)	84	5.4	reduction of adhesion of E. coli CFT073 on urinary bladder cells ([1]; 1.25 mg/mL): adhesion reduction efficacy; concentration necessary for inhibition of E. coli adhesion to human bladder epithelium ([1]; for 1 hour): 2.5 mg/mL; MIC (E. coli; 24 h, E. coli, 24 h exponential growth, pure substances and cranberry control, read-out: MIC (minimal inhibitory concentration)): 5000 µg/mL (≈ 36.2 mM); inhibitory effect on the bacterial infection (adhesion) (E. coli CFT073; 0.05 mg/100 μL by gavage 8 times in 24 h, 5×10^7 cfu E. coli trans-urethral, n=6 mice): −60%; inhibitory effect on the bacterial infection (adhesion) (E. coli CFT073; 3.3×10^6 cfu trans-urethral): −61.3%
O=C(O)CNC(=O)c1ccccc1O [Salicyluric acid, salicyluric acid]			growth	growth	growth	growth *	no growth	MIC at 5 mg/mL	2500 (≈ 12.8 mM)		32.0	MIC (minimal inhibitory concentration) (E. coli; E. coli, 24 h exponential growth, pure substances and cranberry control, listed as 3): 1250 µg/mL (≈ 6.4 mM); cumulated amounts present in the urine ([2]; mice, FIG. 3B): 707 µg
quercetin-4′-O-glucoside [Spiraeoside]												% variation versus Negative Control (water), urine [3]: −9.10%; % variation versus Positive Control (Cranberry), urine [3]: −4.20%
